Ends that are not written are not given here. * marks the point of attachment. SO3H = O=S(=O)(O)*
Legend:
Storage stability = type: physicochemical; settings: under argon at −20° C.
Protocol: After reaction with acetic acid, the resulting free base was isolated as its solid acetate salt followed by lyophilization. M-DNR-Ac is stable for at least 12 months under argon at −20° C.
The methanolic solution was evaporated to dryness under reduced pressure at 25° C., resulting in a red oily residue, which was dissolved in dry methanol. To this solution, dry ether was added and the precipitated red solid isolated by centrifugation. […] (6-Maleimidocaproyl)hydrazone of Morphlinyldaunorubicin acetate is stable for at least 4 months under argon at −20° C.

primary AML cells = assay: Semisolid clonogenic assay, primary AML patient samples; type: cell-based, human
Protocol: 3.2 Cytotoxicity of Y1-IgGM-DNR Derivative (FIG. 12-14): The specific cytotoxic effect of Y1-drug conjugates was assessed in semisolid (METHOCULT™; StemCell Technologies Inc., Vancouver BC, Canada) clonogenic assays. Cells (CD34+ stem cells from cord blood or primary AML patient samples) were incubated with free or conjugated drugs at concentrations of up to 10^−6M for 1 hour at 37° C. The cells were washed, seeded in METHOCULT™ and grown for 10-12 days, after which colonies were counted. Bovine (b)-IgG-M-DNR was used as a non-specific conjugate control.

primary B-CLL cells [1] = assay: CDC against mononuclear cells from B-CLL patients; type: cell-based, human; settings: presence and absence of 25% of the patients' plasma
Protocol: For CDC experiments, mononuclear cells from B-CLL patients were separated on FICOLL®. Cells were incubated with or without Y1-IgG or control antibodies for 24 hours in the presence or absence of the patient's plasma. Apoptotic cells were then stained with Annexin-PI and analyzed by FACS.
Mononuclear cells from B-CLL patients were incubated with Y1-IgG, Rituximab or Campath® in the presence and absence of 25% of the patients' plasma. […] Neither Rituximab nor Y1-IgG induced cytotoxicity via complement fixation.

[2] = tested on: Y1-scFv binding to platelets; assay: Y1-scFv platelet binding assay, inhibition by synthetic GPIb peptides
Protocol: Briefly, peptides were synthesized by solid phase methodology using an ABIMED AMS-422 multiple peptide synthesizer, and as required, tyrosine sulfate was incorporated using FMOC-Try sodium salt. Synthetic peptides were purified using a Lichrosorb RP-18 column. For the Y1-scFv platelet binding assay, a mixture of synthetic peptide (2.5, 25 or 200 μM) and Y1-scFv (10 μg) was incubated with […]. Following washing, platelets were incubated with R-phycoerythrin labeled-anti scFv, washed and analyzed by FACS.

primary B-CLL cells [3] = assay: Y1-IgG-mediated ADCC by PBMC effector cells against primary B-CLL cells; type: cell-based
Protocol: For ADCC experiments, mononuclear effector and target cells were separated on FICOLL®. Target cells were then labeled with PKH26, which stably incorporates a fluorescent dye within the lipid regions of the cell membranes. Cells were then washed and incubated with effector cells at various Effector:Target (E:T) ratios, in the absence or presence of different concentrations of Y1-IgG or control antibodies for 24 hours. Dead cells were stained by TOPRO®(Molecular Probes, Inc., Eugene, Oreg.): and analyzed by FACS on gated target cells.
To determine if Y1-IgG mediates ADCC in primary B-CLL, B-CLL cells from different patients were co-incubated for 24 hours with PBMC effector cells at different effector/target cell ratios. […] Variation may be attributed to the effector cell samples obtained from different healthy donors, as well as to differences among the B-CLL samples.

[4] = molecular target: PSGL-1 (P-Selectin Glycoprotein Ligand-1) (human) (UniProt Q14242); assay: cell-based or functional assay
Sequence of UniProt Q14242 (Q14242 42-412): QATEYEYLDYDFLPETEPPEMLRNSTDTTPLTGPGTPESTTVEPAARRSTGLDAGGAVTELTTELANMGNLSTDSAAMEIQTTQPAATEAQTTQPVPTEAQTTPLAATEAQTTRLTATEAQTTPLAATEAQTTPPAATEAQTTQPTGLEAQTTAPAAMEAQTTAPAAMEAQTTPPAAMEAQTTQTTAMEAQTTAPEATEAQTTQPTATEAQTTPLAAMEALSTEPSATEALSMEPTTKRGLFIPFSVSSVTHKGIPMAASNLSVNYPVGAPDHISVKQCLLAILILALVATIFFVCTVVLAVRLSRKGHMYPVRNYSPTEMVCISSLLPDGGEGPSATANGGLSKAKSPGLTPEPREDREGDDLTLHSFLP

[5] = substitution mutant peptides based on DLY^SDYYPE (FIG. 17B), concentration not given

CC(=O)O.COc1cccc2c1C(=O)c1c(O)c3c(c(O)c1C2=O)C[C@@](O)(C(C)=NNC(=O)CCCCCN1C(=O)C=CC1=O)C[C@@H]3O[C@H]1C[C@H](N2CCOCC2)[C@H](O)[C@H](C)O1 [(6-Maleimidocaproyl)hydrazone of Morphlinyldaunorubicin acetate]
stable for (Storage stability): at least 4 months

COc1cccc2c1C(=O)c1c(O)c3c(c(O)c1C2=O)C[C@@](O)(C(C)=O)C[C@@H]3O[C@H]1C[C@H](N2CCOCC2)[C@H](O)[C@H](C)O1 [M-DNR, 3′-Deamino-3′-(4-morpholinyl)daunorubicin]
colony formation relative to control, AML-M4 cells (primary AML cells; 1 μM): did not give rise to colonies | colony formation relative to control, AML-M5 cells (primary AML cells; 1 μM): did not give rise to colonies | viability of primary AML cells relative to the control (primary AML cells; AML sample M7 megakaryocytic leukemia, 0.1 μM): 80%

CC(=O)O.COc1cccc2c1C(=O)c1c(O)c3c(c(O)c1C2=O)C[C@@](O)(C(C)=O)C[C@@H]3O[C@H]1C[C@H](N2CCOCC2)[C@H](O)[C@H](C)O1 [M-DNR-Ac, 3′-Deamino-3′-(4-morpholinyl)daunorubicin acetate]
stable for (Storage stability): at least 12 months

Campath®: commercially available humanized antibody which binds CD52
cytotoxicity via CDC (primary B-CLL cells [1]): mediated cytotoxicity of primary B-CLL cells via CDC

DAY^SDYYPE (DAY(SO3H)DYYPE) [Leu-275 replaced by Ala]
inhibition of Y1-scFv binding to platelets [2, 5]: inhibited Y1-scFv binding to platelets

DLEDYYPE [sulfated Tyr-276 replaced with Glu]
inhibition of Y1-scFv binding to platelets [2, 5]: no substantial inhibition

DLYDYYPE [non-sulfated control peptide]
inhibition of Y1-scFv binding to platelets ([2]; peptide 200 μM): no effect

DLYDYY^SPE (DLYDYYPE; not fully specified (residue 6)) [sulfated at the third tyrosine]
inhibition of Y1-scFv binding to platelets ([2]; peptide 200 μM): no effect

DLYDY^SY^SPE (DLYDY(SO3H)Y(SO3H)PE) [sulfated at the second and third tyrosines]
inhibition of Y1-scFv binding to platelets ([2]; peptide 200 μM): no effect

DLY^SAYYPE (DLY(SO3H)AYYPE) [Asp-277 replaced by Ala]
inhibition of Y1-scFv binding to platelets [2, 5]: substantially incapable of inhibiting

DLY^SDAYPE (DLY(SO3H)DAYPE) [substitution mutant peptide, amino acids 278 to 280]
inhibition of Y1-scFv binding to platelets [2, 5]: inhibited Y1-scFv binding to platelets

DLY^SDFYPE (DLY(SO3H)DFYPE) [substitution mutant peptide, amino acids 278 to 280]
inhibition of Y1-scFv binding to platelets [2, 5]: inhibited Y1-scFv binding to platelets

DLY^SDYYAE (DLY(SO3H)DYYAE) [substitution mutant peptide, amino acids 278 to 280]
inhibition of Y1-scFv binding to platelets [2, 5]: inhibited Y1-scFv binding to platelets

DLY^SDYYPA (DLY(SO3H)DYYPA) [substitution mutant peptide, amino acids 278 to 280]
inhibition of Y1-scFv binding to platelets [2, 5]: inhibited Y1-scFv binding to platelets

DLY^SDYYPE (DLY(SO3H)DYYPE) [sulfated at the first tyrosine]
inhibition of Y1-scFv binding to platelets ([2]; peptide 25 μM): effectively inhibited

DLY^SDYY^SPE (DLY(SO3H)DYY(SO3H)PE) [sulfated at the first and third tyrosines]
inhibition of Y1-scFv binding to platelets ([2]; peptide 25 μM): effectively inhibited

DLY^SDY^SYPE (DLY(SO3H)DY(SO3H)YPE) [sulfated at the first and second tyrosines]
inhibition of Y1-scFv binding to platelets ([2]; peptide 25 μM): effectively inhibited

DLY^SDY^SY^SPE (DLY(SO3H)DY(SO3H)Y(SO3H)PE) [GPIb-based peptide comprising 3 sulfated tyrosines]
inhibition of Y1-scFv binding to platelets ([2]; peptide 25 μM): effectively inhibited

DLY^SEYYPE (DLY(SO3H)EYYPE) [Asp-277 replaced by Glu]
inhibition of Y1-scFv binding to platelets [2, 5]: substantially incapable of inhibiting

DLY^SNYYPE (DLY(SO3H)NYYPE) [Asp-277 replaced by Asn]
inhibition of Y1-scFv binding to platelets [2, 5]: substantially incapable of inhibiting

Rituximab: commercially available humanized antibody which binds CD20
concentration at which saturation of receptor molecules on the target cells was achieved (primary B-CLL cells [3]): not by the same concentration | cytotoxicity via CDC (primary B-CLL cells [1]): Neither

mouse anti-PSGL-1 antibody KPL1
inhibition of ML2 cell rolling on rh-P-Selectin (1 µg/ml) at all shear forces [4]: 100%

Reference: patent US20050152906A1, “Specific human antibodies” (priority 2003, published 2005)
